What was measured:
[1] = human
[2] = human; remark: listed apart in the source
[3] = Times to onset, minimal and maximal, observed in the indexed observations. [column 'DELAI' in source]; conditions: human
[4] = Highest frequency of acute liver toxicity observed during clinical trials, expressed as a percentage. [column '% AIGUE' in source]; conditions: human
[5] = human; remark: listed apart in the source
[6] = human; remark: listed apart in the source
[7] = human, serum, 4383 h
[8] = human; remark: listed apart in the source
[9] = human; remark: listed apart in the source
[10] = Highest frequency of moderate liver toxicity observed during clinical trials, expressed as a percentage. [column '% BIOL' in source]; conditions: human
[11] = human; remark: listed apart in the source
[12] = human, serum
[13] = human; remark: listed apart in the source
[14] = human; remark: listed apart in the source
[15] = human, serum; remark: listed apart in the source
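Wherever Hepatotoxicity (association with vascular disease) is given: count of indexed literature references reporting vascular liver injury in humans, e.g. peliosis hepatitis, hepatic veno-occlusive disease or Budd-Chiari syndrome.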
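Wherever Hepatotoxicity (benign tumour) is given: value is a count of indexed literature references citing a benign tumour confirmed by histopathology.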
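Wherever Hepatotoxicity (choleostasis) is given: human cholestatic liver injury, shown by histopathology or by peak ALT or AST elevation over alkaline phosphatase ratio below 2, value counts indexed literature reports.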
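Wherever Hepatotoxicity (chronic liver disease) is given: chronic liver injury confirmed by histopathology or persistently raised serum aminotransferase activity beyond 6 months, value given as the count of indexed literature references.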
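Wherever Hepatotoxicity (cirrhosis) is given: value is a count of indexed literature references reporting cirrhosis confirmed by histopathology.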
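Wherever Hepatotoxicity (cytolytic) is given: human cytolytic liver injury, shown by histopathology or by a ratio above 5 of peak ALT or AST elevation to alkaline phosphatase elevation, value counts indexed references.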
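Wherever Hepatotoxicity (granulomatous hepatitis) is given: value is a count of indexed literature references reporting granulomatous liver disease confirmed by histopathology.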
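Wherever Hepatotoxicity (malignant tumour) is given: malignant tumour confirmed by histopathology, value gives the count of indexed literature references reporting it.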
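Wherever Hepatotoxicity (severe hepatitis) is given: human clinical data: severe hepatitis, meaning potentially life-threatening liver failure or clinically observed cases, the value counts how many indexed literature references report it.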
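Wherever Hepatotoxicity (steatosis) is given: steatosis confirmed by histopathology, value is the count of indexed references.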

## Cc1c(C(C)C)c(=O)n(-c2ccccc2)n1C [PROPYPHENAZONE]
[1]
  Hepatotoxicity (malignant tumour): 0
[2]
  Hepatotoxicity (cytolytic): 1
[3]
  Hepatotoxicity (time to onset): 2 days - 2 years
[4]
  Hepatotoxicity (acute): 0%
[5]
  Hepatotoxicity (choleostasis): 0
[6]
  Hepatotoxicity (severe hepatitis): 0
[7]
  Hepatotoxicity (chronic liver disease): 0
[8]
  Hepatotoxicity (granulomatous hepatitis): 2
[9]
  Hepatotoxicity (steatosis): 0
[10]
  Hepatotoxicity (moderate): 0%
[11]
  Hepatotoxicity (association with vascular disease): 0
[12]
  Hepatotoxicity (acute): 3
[13]
  Hepatotoxicity (cirrhosis): 0
[14]
  Hepatotoxicity (benign tumour): 0
[15]
  Hepatotoxicity (moderate): 0

## NC(=O)CC[C@@H]1NC(=O)[C@H](Cc2ccccc2)NC(=O)[C@H](Cc2ccc(O)cc2)NC(=O)CCSSC[C@@H](C(=O)N2CCC[C@H]2C(=O)N[C@H](CCCN=C(N)N)C(=O)NCC(N)=O)NC(=O)[C@H](CC(N)=O)NC1=O [DESMOPRESSIN]
[1]
  Hepatotoxicity (malignant tumour): 0
[2]
  Hepatotoxicity (cytolytic): 0
[3]
  Hepatotoxicity (time to onset): 5 days - 4 weeks
[4]
  Hepatotoxicity (acute): 0%
[5]
  Hepatotoxicity (choleostasis): 0
[6]
  Hepatotoxicity (severe hepatitis): 0
[7]
  Hepatotoxicity (chronic liver disease): 0
[8]
  Hepatotoxicity (granulomatous hepatitis): 0
[9]
  Hepatotoxicity (steatosis): 0
[10]
  Hepatotoxicity (moderate): 20%
[11]
  Hepatotoxicity (association with vascular disease): 0
[12]
  Hepatotoxicity (acute): 0
[13]
  Hepatotoxicity (cirrhosis): 0
[14]
  Hepatotoxicity (benign tumour): 0
[15]
  Hepatotoxicity (moderate): 2

## COc1cc(C(=O)NCc2ccc(OCCN(C)C)cc2)cc(OC)c1OC [TRIMETHOBENZAMIDE]
[1]
  Hepatotoxicity (malignant tumour): 0
[2]
  Hepatotoxicity (cytolytic): 2
[3]
  Hepatotoxicity (time to onset): 5 days
[4]
  Hepatotoxicity (acute): 0%
[5]
  Hepatotoxicity (choleostasis): 1
[6]
  Hepatotoxicity (severe hepatitis): 0
[7]
  Hepatotoxicity (chronic liver disease): 0
[8]
  Hepatotoxicity (granulomatous hepatitis): 0
[9]
  Hepatotoxicity (steatosis): 0
[10]
  Hepatotoxicity (moderate): 0%
[11]
  Hepatotoxicity (association with vascular disease): 0
[12]
  Hepatotoxicity (acute): 2
[13]
  Hepatotoxicity (cirrhosis): 0
[14]
  Hepatotoxicity (benign tumour): 0
[15]
  Hepatotoxicity (moderate): 0

## CC(C)[N+](C)(CCC(C(N)=O)(c1ccccc1)c1ccccc1)C(C)C [ISOPROPAMIDE]
[1]
  Hepatotoxicity (malignant tumour): 0
[2]
  Hepatotoxicity (cytolytic): 1
[3]
  Hepatotoxicity (time to onset): 3 months
[4]
  Hepatotoxicity (acute): 0%
[5]
  Hepatotoxicity (choleostasis): 0
[6]
  Hepatotoxicity (severe hepatitis): 0
[7]
  Hepatotoxicity (chronic liver disease): 0
[8]
  Hepatotoxicity (granulomatous hepatitis): 0
[9]
  Hepatotoxicity (steatosis): 0
[10]
  Hepatotoxicity (moderate): 0%
[11]
  Hepatotoxicity (association with vascular disease): 0
[12]
  Hepatotoxicity (acute): 1
[13]
  Hepatotoxicity (cirrhosis): 0
[14]
  Hepatotoxicity (benign tumour): 0
[15]
  Hepatotoxicity (moderate): 0

## CC(=O)Nc1ccc(OC(=O)c2ccccc2OC(C)=O)cc1 [BENORILATE]
[1]
  Hepatotoxicity (malignant tumour): 0
[2]
  Hepatotoxicity (cytolytic): 2
[3]
  Hepatotoxicity (time to onset): 3 weeks
[4]
  Hepatotoxicity (acute): 0%
[5]
  Hepatotoxicity (choleostasis): 0
[6]
  Hepatotoxicity (severe hepatitis): 1
[7]
  Hepatotoxicity (chronic liver disease): 0
[8]
  Hepatotoxicity (granulomatous hepatitis): 0
[9]
  Hepatotoxicity (steatosis): 0
[10]
  Hepatotoxicity (moderate): 0%
[11]
  Hepatotoxicity (association with vascular disease): 0
[12]
  Hepatotoxicity (acute): 2
[13]
  Hepatotoxicity (cirrhosis): 0
[14]
  Hepatotoxicity (benign tumour): 0
[15]
  Hepatotoxicity (moderate): 0

## O=C(COc1ccc(Cl)cc1)N1CCN(Cc2ccc3c(c2)OCO3)CC1 [FIPEXIDE]
[1]
  Hepatotoxicity (malignant tumour): 0
[2]
  Hepatotoxicity (cytolytic): 3
[3]
  Hepatotoxicity (time to onset): 15 days - 3 months
[4]
  Hepatotoxicity (acute): 0%
[5]
  Hepatotoxicity (choleostasis): 0
[6]
  Hepatotoxicity (severe hepatitis): 1
[7]
  Hepatotoxicity (chronic liver disease): 0
[8]
  Hepatotoxicity (granulomatous hepatitis): 0
[9]
  Hepatotoxicity (steatosis): 0
[10]
  Hepatotoxicity (moderate): 0%
[11]
  Hepatotoxicity (association with vascular disease): 0
[12]
  Hepatotoxicity (acute): 4
[13]
  Hepatotoxicity (cirrhosis): 0
[14]
  Hepatotoxicity (benign tumour): 0
[15]
  Hepatotoxicity (moderate): 0

## Cc1nnc(NS(=O)(=O)c2ccc(N)cc2)s1 [SULFAMETHIZOLE]
[1]
  Hepatotoxicity (malignant tumour): 0
[2]
  Hepatotoxicity (cytolytic): 2
[3]
  Hepatotoxicity (time to onset): 1 month - 2 months
[4]
  Hepatotoxicity (acute): 0%
[5]
  Hepatotoxicity (choleostasis): 1
[6]
  Hepatotoxicity (severe hepatitis): 0
[7]
  Hepatotoxicity (chronic liver disease): 0
[8]
  Hepatotoxicity (granulomatous hepatitis): 0
[9]
  Hepatotoxicity (steatosis): 0
[10]
  Hepatotoxicity (moderate): 0%
[11]
  Hepatotoxicity (association with vascular disease): 0
[12]
  Hepatotoxicity (acute): 4
[13]
  Hepatotoxicity (cirrhosis): 0
[14]
  Hepatotoxicity (benign tumour): 0
[15]
  Hepatotoxicity (moderate): 0

## CN[C@@H]1[C@H](O)[C@H](NC)[C@H]2O[C@@]3(O)C(=O)C[C@@H](C)O[C@H]3O[C@@H]2[C@H]1O [SPECTINOMYCIN]
[1]
  Hepatotoxicity (malignant tumour): 0
[2]
  Hepatotoxicity (cytolytic): 0
[3]
  Hepatotoxicity (time to onset): 3 days
[4]
  Hepatotoxicity (acute): 0%
[5]
  Hepatotoxicity (choleostasis): 1
[6]
  Hepatotoxicity (severe hepatitis): 0
[7]
  Hepatotoxicity (chronic liver disease): 0
[8]
  Hepatotoxicity (granulomatous hepatitis): 0
[9]
  Hepatotoxicity (steatosis): 0
[10]
  Hepatotoxicity (moderate): 0%
[11]
  Hepatotoxicity (association with vascular disease): 0
[12]
  Hepatotoxicity (acute): 1
[13]
  Hepatotoxicity (cirrhosis): 0
[14]
  Hepatotoxicity (benign tumour): 0
[15]
  Hepatotoxicity (moderate): 1

## CN(C)CCC(c1ccc(Cl)cc1)c1ccccn1.O=C(O)/C=C\C(=O)O (stereo not given) [CHLORPHENIRAMINE MALEATE]
[1]
  Hepatotoxicity (malignant tumour): 0
[2]
  Hepatotoxicity (cytolytic): 1
[3]
  Hepatotoxicity (time to onset): 1 month
[4]; Liver
  Hepatotoxicity (acute): 0%
[5]
  Hepatotoxicity (choleostasis): 1
[6]; Liver
  Hepatotoxicity (severe hepatitis): 0
[7]
  Hepatotoxicity (chronic liver disease): 0
[8]
  Hepatotoxicity (granulomatous hepatitis): 0
[9]
  Hepatotoxicity (steatosis): 0
[10]; Liver
  Hepatotoxicity (moderate): 0%
[11]
  Hepatotoxicity (association with vascular disease): 0
[12]
  Hepatotoxicity (acute): 2
[13]
  Hepatotoxicity (cirrhosis): 0
[14]
  Hepatotoxicity (benign tumour): 0
[15]
  Hepatotoxicity (moderate): 0

## Sc1ncnc2[nH]ncc12 [TISOPURINE]
[1]
  Hepatotoxicity (malignant tumour): 0
[2]
  Hepatotoxicity (cytolytic): 1
[3]
  Hepatotoxicity (time to onset): 1.5 months
[4]
  Hepatotoxicity (acute): 0%
[5]
  Hepatotoxicity (choleostasis): 0
[6]
  Hepatotoxicity (severe hepatitis): 0
[7]
  Hepatotoxicity (chronic liver disease): 0
[8]
  Hepatotoxicity (granulomatous hepatitis): 0
[9]
  Hepatotoxicity (steatosis): 0
[10]
  Hepatotoxicity (moderate): 0%
[11]
  Hepatotoxicity (association with vascular disease): 0
[12]
  Hepatotoxicity (acute): 1
[13]
  Hepatotoxicity (cirrhosis): 0
[14]
  Hepatotoxicity (benign tumour): 0
[15]
  Hepatotoxicity (moderate): 0

## CS(=O)(=O)c1ccc2c(c1)N(CCCN1CCC(C(N)=O)CC1)c1ccccc1S2 [METOPIMAZINE]
[1]
  Hepatotoxicity (malignant tumour): 0
[2]
  Hepatotoxicity (cytolytic): 1
[3]
  Hepatotoxicity (time to onset): 1 month
[4]
  Hepatotoxicity (acute): 0%
[5]
  Hepatotoxicity (choleostasis): 1
[6]
  Hepatotoxicity (severe hepatitis): 0
[7]
  Hepatotoxicity (chronic liver disease): 0
[8]
  Hepatotoxicity (granulomatous hepatitis): 0
[9]
  Hepatotoxicity (steatosis): 0
[10]
  Hepatotoxicity (moderate): 0%
[11]
  Hepatotoxicity (association with vascular disease): 0
[12]
  Hepatotoxicity (acute): 1
[13]
  Hepatotoxicity (cirrhosis): 0
[14]
  Hepatotoxicity (benign tumour): 0
[15]
  Hepatotoxicity (moderate): 0
